Source: ChEMBL document CHEMBL5537109, “Natural products as potential lead compounds to develop new antiviral drugs over the past decade” (Eur J Med Chem, 2023)
pEC50, pIC50: −log10 of the molar value.

Assays:
[1] = target: Human immunodeficiency virus type 1 reverse transcriptase (Human immunodeficiency virus 1, UniProt Q72547); assay: Inhibition of HIV1 reverse transcriptase
[2] = Cytotoxicity against human C8166 cells assessed as inhibition of cell growth incubated for 48 hrs by MTT assay; format: toxicity, cell-based
[3] = test system: Human immunodeficiency virus 1; assay: Antiviral activity against HIV-1 3B infected in human MT4 cells assessed as inhibition of viral replication incubated for 5 days by MTT assay; format: functional, organism-based; settings: Human immunodeficiency virus 1, 3B, MT4, 120 h
RAW264.7 = assay: Cytotoxicity against mouse RAW264.7 cells assessed as reduction in cell viability incubated for 24 hrs by CCK-8 method; format: functional
[4] = test system: Human immunodeficiency virus 1; assay: Antiviral activity against HIV-1 harboring reverse transcriptase infected in human MT4 cells assessed as reduction in virus-induced cytopathic effect; format: functional, organism-based; settings: Human immunodeficiency virus 1, MT4
[5] = Cytotoxicity against human C8166 cells assessed as inhibition of cell growth by MTT assay; format: toxicity, cell-based
Influenza A virus [6] = assay: Antiviral activity against influenza A virus H1N1(A/PR/8/34) infected in MDCK cells assessed as inhibition of cytopathic effect incubated for 48 hrs by MTT assay; format: functional, organism-based
[7] = Inhibition of Influenza A virus A/California/04/2009 (H1N1) N-terminal his tagged domain of PA endonuclease expressed in Escherichia coli BL21 (DE3) cells
Influenza A virus [8] = assay: Antiviral activity against influenza A virus H5N1 infected in dog MDCK cells assessed as viral growth inhibition; format: functional, organism-based
Influenza A virus [9] = assay: Antiviral activity against influenza A virus A/Hong Kong/1/68 (HK1, H3N2) infected in dog MDCK cells assessed as cytopathic effect; format: functional, organism-based
[10] = Cytotoxicity against MDCK cells assessed as inhibition of cell growth incubated for 48 hrs by MTT assay; format: toxicity, cell-based, Canis lupus familiaris; settings: dog
[11] = test system: Human immunodeficiency virus 1; assay: Antiviral activity against wild-type HIV-1 NL4-3 infected in human MT4 cells assessed as inhibition of viral growth by measuring reduction in p24 antigen level incubated for 3 to 7 days by ELISA analysis; format: functional, organism-based; settings: Human immunodeficiency virus 1, NL4-3, MT4
[12] = test system: Human immunodeficiency virus 1; assay: Antiviral activity against HIV-1 3B harboring reverse transcriptase infected in human MT4 cells assessed as protection against virus-induced cytopathic effect incubated for 5 days by MTT assay; format: functional, organism-based; settings: Human immunodeficiency virus 1, 3B, MT4, 120 h
[13] = test system: Human immunodeficiency virus 1; assay: Antiviral activity against HIV-1 3B harboring reverse transcriptase infected in human C8166 cells assessed as protection against virus-induced cytopathic effect incubated for 5 days by MTT assay; format: functional, organism-based; settings: Human immunodeficiency virus 1, 3B, C8166, 120 h
[14] = test system: Human immunodeficiency virus 1; assay: Anti-HIV activity against HIV-1 IIIB infected in human C8166 cells assessed as inhibition of virus-induced cytopathic effect by MTT assay; format: functional, organism-based; settings: Human immunodeficiency virus 1, IIIB
[15] = Cytotoxicity against African green monkey Vero E6 cells assessed as reduction in cell growth incubated for 24 hrs by WST-8 assay; format: toxicity, cell-based, Vero C1008; settings: chlorocebus sabaeus
[16] = Cytotoxicity against human C8166 cells assessed as reduction in cell growth by MTT assay; format: toxicity, cell-based
[17] = test system: Human immunodeficiency virus 1; assay: Antiviral activity against HIV1 infected in C8166 cells assessed as reduction in viral replication measured after 3 days by ELISA; format: functional, organism-based

COc1cc(C)c(Cc2cc3c([nH]c4ccccc43)c3c2OC(C)(C)C=C3)c2c1[nH]c1ccccc12
pIC50 [1]: 7.73 | CC50 at 48 h [2]: > 200 µM

C=CC(CO)[C@@H]1C[C@H]2c3[nH]c4ccccc4c3CCN2C(=O)[C@@H]1CO (some centres not stated)
CC50 at 48 h [2]: > 200 µM | pEC50 [3]: 6.64

C=C(C)[C@@]1(OC(=O)c2ccccc2)[C@H](OC(C)=O)[C@@H]2[C@H](OC(C)=O)[C@@]3(C)O[C@@]4([C@@H]3O)[C@@H](OC(=O)c3ccccc3)[C@@H](C)C[C@H]4[C@@]2(O)[C@H](C)[C@@H]1OC(C)=O
CC50 (RAW264.7): > 200 µM | pEC50 [4]: 7.02

C=CC(C)(C)c1cc2cc3c(c(CC=C(C)C)c2oc1=O)O[C@H](C(C)(C)O)C3
CC50 [5]: > 200 µM

O=C(OC[C@H]1O[C@@H](Oc2ccc(O)cc2C(=O)O)[C@H](OC(=O)c2cc(O)c(O)c(O)c2)[C@@H](O)[C@@H]1O)c1cc(O)c(O)c(O)c1
pEC50 (Influenza A virus [6]): 4.49 | pIC50 [7]: 4.56 | pIC50 (Influenza A virus [8]): 4.68 | pEC50 (Influenza A virus [9]): 4.51 | CC50 at 48 h [10]: 835 µM

C=C(C)[C@@]1(OC(=O)c2ccccc2)[C@H](OC(C)=O)[C@@H]2[C@H](OC(C)=O)[C@@]3(C)O[C@@]4([C@@H]3OC(C)=O)[C@@H](OC(=O)c3ccccc3)[C@@H](C)C[C@H]4[C@@]2(O)[C@H](C)[C@@H]1OC(C)=O
CC50 (RAW264.7): > 200 µM | pEC50 [4]: 6.74

O=C1C=C2C[C@H](O[C@H]3C[C@@]45OC(=O)C=C4C[C@@H]3N3CCCC[C@H]35)[C@@H]3C[C@@]2(O1)[C@H]1CCCN31
pEC50 [11]: 3.92

C=CC(C)(C)c1cc2cc(C[C@@H](OCC)C(C)(C)O)c(OC)cc2oc1=O
CC50 [5]: > 200 µM | pEC50 [12]: 6.38

C=C1[C@H]2O[C@@H](OC)[C@H]3[C@@H]1[C@@H]1O[C@@H]1[C@@]3(CO)O2
CC50 [5]: > 200 µM | pIC50 [1]: 5.14

C=CC(C)(C)c1cc2cc(CC(=O)C(C)C)c(OC)cc2oc1=O
CC50 [5]: > 200 µM | pEC50 [12]: 6.92

O=C(O[C@H]1[C@H](Oc2ccc(O)cc2C(=O)O)O[C@H](CO)[C@@H](O)[C@@H]1OC(=O)c1cc(O)c(O)c(O)c1)c1cc(O)c(O)c(O)c1
pEC50 (Influenza A virus [6]): 4.51 | pIC50 [7]: 4.51 | pIC50 (Influenza A virus [8]): 4.61 | pEC50 (Influenza A virus [9]): 4.55 | CC50 at 48 h [10]: > 1000 µM

COc1cc2oc(CO)cc(=O)c2c(O)c1CCC(C)(C)O
CC50 [5]: > 200 µM | pEC50 [13]: 7.05

C=CC(C)(C)c1cc2cc(C[C@@H](OC)C(C)(C)O)c(OC)cc2oc1=O
CC50 [5]: > 200 µM | pEC50 [12]: 6.48

COc1cc2oc(CO)cc(=O)c2c(O)c1CC=C(C)C
CC50 [5]: > 200 µM | pEC50 [13]: 6.02

COc1cc(OC)c2c(c1OC)C[C@H]1NCCc3cc4c(c-2c31)OCO4
pEC50 [14]: 5.24 | CC50 at 48 h [2]: 43.6 µM

O=C(OC[C@H]1O[C@@H](Oc2ccc(O)cc2C(=O)O)[C@H](O)[C@@H](OC(=O)c2cc(O)c(O)c(O)c2)[C@@H]1O)c1cc(O)c(O)c(O)c1
pEC50 (Influenza A virus [6]): 4.69 | pIC50 [7]: 4.54 | pIC50 (Influenza A virus [8]): 4.93 | pEC50 (Influenza A virus [9]): 4.48 | CC50 at 48 h [10]: 964 µM

C=CC(C)(C)c1cc2cc3c(cc2oc1=O)O[C@H](C(C)(C)O)[C@H]3O
CC50 [5]: > 200 µM | pEC50 [13]: 6.77

O=c1cc(-c2ccccc2)oc2cc(O)c(O)c(O)c12 [BAICALEIN]
CC50 at 24 h [15]: > 200 µM

CC(C)CC(=O)O[C@H]1/C=C/C=C\C(=O)O[C@H]2[C@@H](C)C[C@@H]3[C@]2(O)[C@H](O)[C@@]2(CO)O[C@H]2[C@H]2[C@H]4OC5(c6ccccc6)O[C@@H]([C@@H](C)[C@@]23O5)[C@@]4(O)[C@](C)(O)C[C@H]2CC[C@H]1[C@H]2C
CC50 [16]: 0.0222 µM | EC50 [17]: 0.76 10^-3nmol

O=c1c(O)c(-c2cc(O)c(O)c(O)c2)oc2cc(O)cc(O)c12 [MYRICETIN]
CC50 at 24 h [15]: > 200 µM

COc1cc(OC)c([N+](=O)[O-])c2c1-c1c3c(c(OC)c4c1[C@@H](C2)NCC4)OCO3
pEC50 [14]: 5.71 | CC50 at 48 h [2]: 28.7 µM
